Laboratory results published in patent publication US20090131470A1, “PYRAZOLE-SUBSTITUTED BENZIMIDAZOLE DERIVATIVES FOR USE IN THE TREATMENT OF CANCER AND AUTOIMMUNE DISORDERS” (priority 2005, published 2009).

Columns and labels:
Format in all cases: biochemical
[1] = molecular target: T1, PDK1 (Homo sapiens, UniProt O15530); experiment: PDK1 kinase assay (33P peptide phosphorylation); conditions: 0.01 mM ATP, 60 min at 30° C.; read-out: PDK-1 IC50
T1 sequence (O15530 1-556): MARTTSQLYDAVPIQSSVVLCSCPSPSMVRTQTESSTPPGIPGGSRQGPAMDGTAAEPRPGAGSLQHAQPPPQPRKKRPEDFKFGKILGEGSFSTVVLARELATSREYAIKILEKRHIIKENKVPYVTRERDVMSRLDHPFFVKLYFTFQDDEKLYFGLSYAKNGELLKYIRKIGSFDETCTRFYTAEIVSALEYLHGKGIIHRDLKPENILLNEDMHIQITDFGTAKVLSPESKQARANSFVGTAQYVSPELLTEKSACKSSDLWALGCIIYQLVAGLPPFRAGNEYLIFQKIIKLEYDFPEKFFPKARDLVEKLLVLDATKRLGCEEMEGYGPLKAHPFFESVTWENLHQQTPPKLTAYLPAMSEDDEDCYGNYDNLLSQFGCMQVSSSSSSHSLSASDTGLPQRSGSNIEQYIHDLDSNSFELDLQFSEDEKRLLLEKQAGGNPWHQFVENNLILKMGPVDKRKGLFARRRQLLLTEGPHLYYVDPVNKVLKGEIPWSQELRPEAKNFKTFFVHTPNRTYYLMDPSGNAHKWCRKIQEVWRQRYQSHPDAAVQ

[2] = molecular target: T2, PKA (Homo sapiens, UniProt P17612); experiment: PKA kinase assay (Kemptide substrate); conditions: 100 μM ATP
T2 construct: purchased Upstate

[3] = molecular target: EGFR (Homo sapiens, UniProt P00533); experiment: Kinase selectivity screening (example 14)
Chain of EGFR (P00533 25-1210): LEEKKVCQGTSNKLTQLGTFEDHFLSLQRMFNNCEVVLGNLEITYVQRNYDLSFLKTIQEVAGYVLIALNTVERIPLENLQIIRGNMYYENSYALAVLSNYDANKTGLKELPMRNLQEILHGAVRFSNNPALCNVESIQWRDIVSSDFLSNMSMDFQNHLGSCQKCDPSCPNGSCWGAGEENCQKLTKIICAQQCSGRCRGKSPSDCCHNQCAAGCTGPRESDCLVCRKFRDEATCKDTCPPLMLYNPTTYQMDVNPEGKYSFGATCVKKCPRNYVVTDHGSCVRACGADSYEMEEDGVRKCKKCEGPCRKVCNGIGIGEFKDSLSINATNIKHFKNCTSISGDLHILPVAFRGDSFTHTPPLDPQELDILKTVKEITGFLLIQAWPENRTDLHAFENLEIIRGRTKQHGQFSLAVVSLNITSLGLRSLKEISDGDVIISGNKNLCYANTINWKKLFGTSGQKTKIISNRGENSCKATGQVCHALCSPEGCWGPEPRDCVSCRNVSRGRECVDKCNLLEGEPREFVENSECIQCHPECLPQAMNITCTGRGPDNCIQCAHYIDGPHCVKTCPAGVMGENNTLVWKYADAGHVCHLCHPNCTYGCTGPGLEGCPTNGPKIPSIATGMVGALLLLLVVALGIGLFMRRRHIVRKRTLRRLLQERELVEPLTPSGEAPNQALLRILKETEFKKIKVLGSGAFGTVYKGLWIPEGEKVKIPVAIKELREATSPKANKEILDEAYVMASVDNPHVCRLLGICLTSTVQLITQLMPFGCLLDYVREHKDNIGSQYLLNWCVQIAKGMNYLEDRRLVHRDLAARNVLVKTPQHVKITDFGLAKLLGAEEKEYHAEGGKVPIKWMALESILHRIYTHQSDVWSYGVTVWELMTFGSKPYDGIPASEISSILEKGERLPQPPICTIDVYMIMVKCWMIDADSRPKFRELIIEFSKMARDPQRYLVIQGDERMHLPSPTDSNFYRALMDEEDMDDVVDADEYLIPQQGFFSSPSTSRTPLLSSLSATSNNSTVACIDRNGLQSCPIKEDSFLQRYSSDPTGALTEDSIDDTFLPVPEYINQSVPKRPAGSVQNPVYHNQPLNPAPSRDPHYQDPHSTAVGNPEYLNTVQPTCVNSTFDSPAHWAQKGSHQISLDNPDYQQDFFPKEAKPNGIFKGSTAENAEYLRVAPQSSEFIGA

[4] = molecular target: FGFR4 (Homo sapiens, UniProt P22455); experiment: Kinase selectivity screening (example 14)
Chain of FGFR4 (P22455 22-802, species assumed): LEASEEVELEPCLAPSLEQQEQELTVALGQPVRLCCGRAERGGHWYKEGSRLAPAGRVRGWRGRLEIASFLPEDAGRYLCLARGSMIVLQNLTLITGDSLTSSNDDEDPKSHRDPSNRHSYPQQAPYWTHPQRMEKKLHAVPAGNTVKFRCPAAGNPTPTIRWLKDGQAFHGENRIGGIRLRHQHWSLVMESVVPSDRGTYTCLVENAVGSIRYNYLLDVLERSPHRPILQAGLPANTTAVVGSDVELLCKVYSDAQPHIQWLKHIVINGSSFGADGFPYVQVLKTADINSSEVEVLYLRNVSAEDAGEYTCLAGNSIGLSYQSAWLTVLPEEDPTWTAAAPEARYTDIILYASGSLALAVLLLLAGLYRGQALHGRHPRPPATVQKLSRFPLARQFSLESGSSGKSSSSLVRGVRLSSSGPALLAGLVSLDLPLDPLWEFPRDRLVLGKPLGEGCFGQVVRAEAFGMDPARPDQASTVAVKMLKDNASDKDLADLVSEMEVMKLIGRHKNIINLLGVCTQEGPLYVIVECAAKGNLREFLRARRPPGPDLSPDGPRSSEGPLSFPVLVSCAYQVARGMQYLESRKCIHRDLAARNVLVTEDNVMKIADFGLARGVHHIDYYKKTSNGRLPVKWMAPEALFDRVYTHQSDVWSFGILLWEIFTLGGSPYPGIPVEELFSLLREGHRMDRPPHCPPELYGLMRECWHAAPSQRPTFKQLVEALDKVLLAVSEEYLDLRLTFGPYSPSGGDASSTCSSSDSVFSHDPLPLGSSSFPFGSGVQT

[5] = molecular target: T3, ITK (Homo sapiens, UniProt Q08881); experiment: Kinase selectivity screening (example 14)
T3 sequence (Q08881 1-620): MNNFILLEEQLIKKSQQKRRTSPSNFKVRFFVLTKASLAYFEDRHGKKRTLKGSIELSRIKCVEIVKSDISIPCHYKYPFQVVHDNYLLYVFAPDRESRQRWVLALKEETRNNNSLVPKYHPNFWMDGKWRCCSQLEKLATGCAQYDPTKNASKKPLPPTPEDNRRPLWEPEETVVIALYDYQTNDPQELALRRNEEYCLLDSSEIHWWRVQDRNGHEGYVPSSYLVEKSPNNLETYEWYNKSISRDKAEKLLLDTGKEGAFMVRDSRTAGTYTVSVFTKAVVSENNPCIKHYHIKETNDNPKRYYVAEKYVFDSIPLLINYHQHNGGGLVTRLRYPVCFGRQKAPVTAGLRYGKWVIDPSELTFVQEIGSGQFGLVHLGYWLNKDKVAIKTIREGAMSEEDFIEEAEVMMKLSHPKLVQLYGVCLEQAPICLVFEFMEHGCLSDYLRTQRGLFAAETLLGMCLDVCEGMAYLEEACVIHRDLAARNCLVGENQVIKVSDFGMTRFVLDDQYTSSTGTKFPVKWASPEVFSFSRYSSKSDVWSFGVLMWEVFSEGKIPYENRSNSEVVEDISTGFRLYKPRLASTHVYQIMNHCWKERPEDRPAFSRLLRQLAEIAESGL

Cc1[nH]nc(-c2nc3cc4cn[nH]c4cc3[nH]2)c1C(=O)NC1CCNCC1 [Example 14]
IC50 [1]: 0.01 µM
IC50 [2]: 7.2 µM
selectivity versus EGFR [3]: > 20 fold
selectivity versus FGFR4 [4]: > 20 fold
selectivity versus ITK [5]: > 20 fold
